Source: ChEMBL document CHEMBL2062421, “The antioxidant effect of imine resveratrol analogues” (Bioorg Med Chem Lett, 2012)
Activity calls are given as the source filed them. The rule behind the calls is not given here.

Key:
[1] = Antioxidant activity assessed as DPPH scavenging activity after 30 mins by microplate reader method; type: functional
[2] = Antioxidant activity assessed as inhibition of singlet 1O2 oxygen formation at 1.3 uM after 2 mins by EPR spectrometry; type: functional
[3] = Ratio of resveratrol IC50 to compound IC50 for singlet 1O2 oxygen quenching activity
[4] = Antioxidant activity assessed as complete inhibition of singlet 1O2 oxygen formation at 37 uM after 2 mins by EPR spectrometry
[5] = Antioxidant activity assessed as singlet 1O2 oxygen quenching activity after 2 mins by EPR spectrometry; type: functional
[6] = Antioxidant activity assessed as inhibition of TEMP-singlet 1O2 oxygen adduct formation measuring after 2 mins by EPR spectrometry; type: functional

SMILES	IC50 [1]	IC50 [5]	other results
Cc1cccc(/N=C/c2ccc(O)cc2)c1	> 1000 µM	–	–
COc1cccc(/C=N/c2ccccc2C)c1	> 1000 µM	–	–
Oc1ccc(/N=C/c2ccccc2O)cc1	561 µM	–	–
Oc1ccccc1/C=N/c1ccccc1 [2-((PHENYLIMINO)METHYL)PHENOL]	> 1000 µM	–	–
Oc1cccc(/C=N/c2ccccc2)c1	> 1000 µM	–	–
COc1cc(/C=C/C(=O)CC(=O)/C=C/c2ccc(O)c(OC)c2)ccc1O [CURCUMIN]	–	2.75 µM	–
C(=N\c1ccccc1)/c1ccccc1	> 1000 µM	–	–
COc1cccc(/C=N/c2ccc(C)cc2)c1	> 1000 µM	–	–
COc1ccc(/N=C/c2ccc(O)cc2)cc1	> 1000 µM	–	–
Oc1cccc(/N=C/c2ccccc2O)c1	468 µM	–	–
COc1ccc(/C=N/c2ccc(OC)cc2)cc1	> 1000 µM	–	–
Cc1ccc(/N=C/c2cccc(O)c2)cc1	> 1000 µM	–	–
Cc1ccc(/N=C/c2ccc(O)cc2)cc1	> 1000 µM	–	–

Continued, in another order:

IC50 [1]	IC50 [5]	SMILES	other results
142 µM	–	Oc1ccc(/N=C/c2ccccc2)cc1 [4-(BENZYLIDENEAMINO)PHENOL]	–
24.3 µM	0.99 µM	Oc1ccc(/C=N/c2ccccc2O)cc1	inhibition [2]: Active; Ratio IC50 [3]: > 15; inhibition [4]: Active; inhibition [6]: Dose-dependent effect
23.1 µM	2.18 µM	Oc1cccc(/C=N/c2ccccc2O)c1	–
19.3 µM	–	O=C1O[C@H]([C@@H](O)CO)C(O)=C1O [ASCORBIC ACID]	–
164 µM	–	Oc1ccc(/N=C/c2cc(O)cc(O)c2)cc1	–
23.9 µM	3.47 µM	Oc1ccccc1/N=C/c1ccccc1	–
413 µM	–	COc1cc(/C=N/c2ccc(O)cc2)cc(OC)c1	–
28.1 µM	1.3 µM	COc1ccc(/C=N/c2ccccc2O)cc1	–
24.9 µM	1.42 µM	COc1cccc(/C=N/c2ccccc2O)c1	–
362 µM	–	Oc1ccc(/C=N/c2cccc(O)c2)cc1	–
12.1 µM	2.26 µM	Oc1ccc(/C=N/c2ccccc2O)cc1O	–
27.4 µM	2.92 µM	Oc1ccccc1/C=N/c1ccccc1O	–
71.2 µM	16.9 µM	Oc1ccc(/C=C/c2cc(O)cc(O)c2)cc1 [RESVERATROL]	–
